This note sets out measurements from article PMC10458937, “Triose Phosphate Isomerase Structure-Based Virtual Screening and In Vitro Biological Activity of Natural Products as Leishmania mexicana Inhibitors” (Pharmaceutics, 2023).

Data set [1] deals with promastigote of both L. mexicana strains. Nature of the data set: In vitro leishmanicidal activity, promastigote of both L. mexicana strains (abstract). The format is cell-based, Leishmania mexicana. The settings on record: rounded value of the abstract. On the procedure:
Promastigotes from the reference strain of L. mexicana (MNYC/BZ/62/M379) and the autochthonous isolate of L. mexicana (MHOM/MX/2017/UABJO17FCQEPS) were used in the in vitro studies. Parasites were preserved in RPMI 1640 supplemented with 10% fetal bovine serum (FBS), 100 U/mL penicillin, 100 ug/mL streptomycin, and glutamine (2 mM). The parasites, in their logarithmic growth phase (5 × 10^5 parasites/mL), were incubated in 96-well plates with the compounds under different concentrations (0.78–100 µM) dissolved in dimethyl sulfoxide (DMSO) in a final volume of 200 µL for 48 h at 26 °C. Parasites in the presence of DMSO (0.2%) were included as a negative control. […] The metabolic activity of the cells was determined using the method of 3-(4,5-Dimethylthiazol-2-yl)-2,5-diphenyltetrazolium bromide (MTT). The half-maximum inhibitory concentration (IC50) was determined using probit analysis. Three independent assays were each performed in triplicate. Biostat software was used to analyze the data for statistically significant data (p < 0.05).

Data set [2] concerns L. mexicana MHOM/MX/2017/UABJO17FCQEPS promastigotes. Nature of the data set: In vitro leishmanicidal evaluation on promastigotes (MTT), strain FCQEPS. It counts as cell-based. Conditions: 48 h, read-out: Leishmania mexicana IC50 (µM ± SD) FCQEPS. As to the method: (§1) The metabolic activity of the cells was determined using the method of 3-(4,5-Dimethylthiazol-2-yl)-2,5-diphenyltetrazolium bromide (MTT). The half-maximum inhibitory concentration (IC50) was determined using probit analysis. Three independent assays were each performed in triplicate. Biostat software was used to analyze the data for statistically significant data (p < 0.05).

Data set [3] concerns L. mexicana MNYC/BZ/62/M379 promastigotes. Nature of the data set: In vitro leishmanicidal evaluation on promastigotes (MTT), strain M379. It counts as cell-based. Conditions: read-out: Leishmania mexicana IC50 (µM ± SD) M379. As to the method: as §1
The nature of data set [4]: Cytotoxicity in murine macrophages (MTT). The format is cell-based, mouse. Conditions: mouse, 37 °C, read-out: J774.2 Cell Line CC50 (µM ± SD). On the procedure: (§2) This assay was performed on mouse macrophages from the J774.2 cell line that were recloned from the original ascites and solid tumor J774.1 (according to the fabricant). The cells were cultured in RPMI medium supplemented with 10% SFB, […] penicillin, 100 ug/mL streptomycin, and glutamine (2 mM) at 37 °C and in a 5% CO2 atmosphere. The medium was changed at intervals of every 2 to 3 days. […] Cells in the presence of the maximum concentration of DMSO (0.2%) were included as a negative control. The metabolic activity of the cells was determined using the MTT method. The percentage of cell viability was calculated, and the mean cytotoxic concentration (CC50) was determined using probit analysis. Three independent assays were each performed in triplicate. The selectivity index (SI) was calculated for the promastigotes of L. mexicana and the autochthonous isolate (CC50/IC50).

The next data set relates to J774.2 cell line. In words: Cytotoxicity in murine macrophages (MTT). The format is cell-based, mouse. Conditions: 48 h, 37 °C, read-out: J774.2 Cell Line CC50 (µM ± SD). As to the method:
as §2

[5] abbreviates: Leishmania mexicana, promastigotes, strain MHOM/MX/2017/UABJO17FCQEPS, 26 °C, MTT.
Setting [6] is: Leishmania mexicana, promastigotes, strain MNYC/BZ/62/M379, 48 h, 26 °C, MTT.

Where two headings read alike, the source gives them in different places.

In general, IC50 refers to the midpoint of a concentration-inhibition curve. On to Glucantime, for which the IC50 in data set [1] came to 133 µM; in data set [2] (promastigotes, strain MHOM/MX/2017/UABJO17FCQEPS, 26 °C, MTT), 125 ± 11.6 µM; in data set [3] (promastigotes, strain MNYC/BZ/62/M379, 48 h, 26 °C, MTT), 134 ± 2.79 µM.

As a reminder, the CC50 is the concentration at which the toxic effect on the cells reaches its halfway point. As for `C[C@H]1[C@H](C)CC[C@]2(C(=O)O)CC[C@]3(C)C(=CC[C@@H]4[C@@]5(C)CC[C@H](O)C(C)(C)[C@@H]5CC[C@]43C)[C@H]12` [Compound B-3, ursolic acid], the CC50 at 48 h in data set [4] (J774.2 macrophage cells) was found to be 49.2 ± 5.53 µM. Further, the results for the IC50 in data set [2] (setting [5]) and in data set [3] (setting [6]) were 87.2 ± 7.05 µM and greater than 200 µM, respectively.

Turning to `CC1(C)[C@@H](O)CC[C@]2(C)[C@H]3C(=O)C=C4[C@@H]5C[C@@](C)(C(=O)O)CC[C@]5(C)CC[C@@]4(C)[C@]3(C)CC[C@@H]12` [Compound S-3, glycyrrhetinic acid], the CC50 in the data set on J774.2 cell line is greater than 100 µM. Further, the results for the half-inhibitory concentration (IC50) in data set [2] (setting [5]) and in data set [3] (setting [6]) were 145 ± 12.1 µM and 44.2 ± 5.03 µM, respectively.

On to `CCc1cc2c(cc1CC)CC(NC[C@H](O)c1ccc(O)c3[nH]c(=O)ccc13)C2` [Compound S-8, indacaterol], for which, in the data set with J774.2 cell line, the CC50 is greater than 100 µM. In addition, the figures for the IC50 in data set [1] (Leishmania mexicana), in data set [2] (setting [5]) and in data set [3] (setting [6]) were 55 µM, 56 ± 5.87 µM and 55.1 ± 2.34 µM, respectively.

As to `CNC(=O)c1cc(Oc2ccc(NC(=O)Nc3ccc(Cl)c(C(F)(F)F)c3)cc2)ccn1` [Compound S-7, sorafenib], the CC50 at 48 h in data set [4] turned out to be 64.9 ± 9.58 µM. The IC50 in data set [2] (Leishmania mexicana) is 166 ± 18.1 µM; in data set [3] (Leishmania mexicana, 48 h), 24.9 ± 3.08 µM.
